Target: T1, retinoic acid receptor-related orphan receptor γ (RORγ) (Homo sapiens, UniProt P51449)
T1 sequence (P51449 265-507 limits assumed): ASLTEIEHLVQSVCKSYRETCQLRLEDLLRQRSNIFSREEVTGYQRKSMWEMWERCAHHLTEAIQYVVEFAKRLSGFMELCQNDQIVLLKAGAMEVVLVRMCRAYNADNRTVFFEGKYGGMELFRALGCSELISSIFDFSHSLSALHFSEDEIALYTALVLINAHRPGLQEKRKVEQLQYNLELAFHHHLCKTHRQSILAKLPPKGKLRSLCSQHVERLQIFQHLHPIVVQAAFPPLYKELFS
Format: binding

In the case of `C[C@H]1O[C@@H](O[C@H]2[C@@H](O)C[C@H](O[C@H]3[C@@H](O)C[C@H](O[C@H]4CC[C@@]5(C)[C@H](CC[C@@H]6[C@@H]5C[C@@H](O)[C@]5(C)[C@@H](C7=CC(=O)OC7)CC[C@]65O)C4)O[C@@H]3C)O[C@@H]2C)C[C@H](O)[C@@H]1O` [digoxin], the “differential HDX mass spectrometry” value is reported as “HDX) mass spectrometry analysis of the RORγ LBD in the presence and absence of digoxin, T1317, or SR2211”.

Reference: paper PMC3331898 (2012)
